33 compounds from US20230312556A1, “ARYLAMIDE COMPOUND, PHARMACEUTICAL COMPOSITION COMPRISING SAME, AND PREPARATION METHOD THEREFOR AND USE THEREOF” (SICHUAN KELUN-BIOTECH BIOPHARMACEUTICAL CO., LTD., priority 2020, published 2023) can be followed below.

For the experiment, the target named is mutant BRAF enzyme (BRAF-V600E) (Homo sapiens (Human), UniProt P15056, V600E). The experiment is described as follows: RAF inhibition assay (TB-PMAP2K1 kit), BRAF-V600E. The experiment is classed as biochemical. The following applies: FLUORESCEIN-MAP2K1 substrate, 60 min reaction.
Chain of mutant BRAF enzyme (BRAF-V600E) (P15056 whole entry V600E): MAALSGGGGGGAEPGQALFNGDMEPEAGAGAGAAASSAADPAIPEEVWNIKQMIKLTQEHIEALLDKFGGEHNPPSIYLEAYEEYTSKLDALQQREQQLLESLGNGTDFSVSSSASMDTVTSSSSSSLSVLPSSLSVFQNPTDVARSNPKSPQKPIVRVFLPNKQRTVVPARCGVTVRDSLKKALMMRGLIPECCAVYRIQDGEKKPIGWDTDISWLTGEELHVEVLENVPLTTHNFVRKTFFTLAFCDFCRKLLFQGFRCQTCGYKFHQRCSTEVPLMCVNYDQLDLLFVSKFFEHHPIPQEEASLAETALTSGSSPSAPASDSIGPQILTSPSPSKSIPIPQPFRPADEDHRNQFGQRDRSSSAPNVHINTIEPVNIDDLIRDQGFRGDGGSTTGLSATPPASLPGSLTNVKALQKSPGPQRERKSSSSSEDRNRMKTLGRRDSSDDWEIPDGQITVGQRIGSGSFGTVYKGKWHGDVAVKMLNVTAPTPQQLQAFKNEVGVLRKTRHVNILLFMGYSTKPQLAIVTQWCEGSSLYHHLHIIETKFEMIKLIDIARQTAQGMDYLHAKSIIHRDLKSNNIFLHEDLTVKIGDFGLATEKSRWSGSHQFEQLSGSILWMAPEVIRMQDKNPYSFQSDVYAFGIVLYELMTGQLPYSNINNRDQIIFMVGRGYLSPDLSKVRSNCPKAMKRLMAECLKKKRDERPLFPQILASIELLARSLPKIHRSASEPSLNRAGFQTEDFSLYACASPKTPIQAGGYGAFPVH
In general, IC50 refers to the concentration that gives 50% inhibition. Low values mean higher potency, high ones lower potency. `COc1ccc(Nc2nccc3c(NC(=O)c4cnc5c(N)ncnn45)c(C)ccc23)cc1Cl` [Compound 56, 4-amino-N-(1-((3-chloro-4-methoxyphenyl)amino)-6-methylisoquinolin-5-yl)imidazo[2,1-f][1,2,4]triazine-7-carboxamide] registered an IC50 of 3.16 ± 0.67 nM.
Under `COc1ccc(Nc2nccc3c(NC(=O)c4cccc5c(N)ncnc45)c(C)ccc23)cc1` [Compound 57, 4-amino-N-(1-((4-methoxyphenyl)amino)-6-methylisoquinolin-5-yl)quinazoline-8-carboxamide] stands 2.89 ± 0.34 nM; under `Cc1ccc2c(Nc3ccc(N(C)C)nc3)nccc2c1NC(=O)c1cccc2c(N)ncnc12` [Compound 59, 4-amino-N-(1-((6-(dimethylamino)pyridin-3-yl)amino)-6-methylisoquinolin-5-yl)quinazoline-8-carboxamide], 13 ± 1.35 nM; under `COc1ccc(Nc2nccc3c(NC(=O)c4cnc5c(N)ncnn45)c(C)ccc23)c(F)c1` [Compound 61, 4-amino-N-(1-((2-fluoro-4-methoxyphenyl)amino)-6-methylisoquinolin-5-yl)imidazo[2,1-f][1,2,4]triazine-7-carboxamide], 2.88 ± 0.74 nM.
In the case of `Cc1ccc2c(Nc3ccc(CN(C)C)c(C(F)(F)F)c3)nccc2c1NC(=O)c1cnc2c(N)ncnn12` [Compound 62, 4-amino-N-(1-((4-((dimethylamino)methyl)-3-(trifluoromethyl)phenyl)amino)-6-methylisoquinolin-5-yl)imidazo[2,1-f][1,2,4]triazine-7-carboxamide], the IC50 was 19.7 ± 4.67 nM.
In turn, `CC(=O)c1ccc(Nc2nccc3c(NC(=O)c4cccc5c(N)ncnc45)c(C)ccc23)cc1` [Compound 63, N-(1-((4-acetylphenyl)amino)-6-methylisoquinolin-5-yl)-4-aminoquinazoline-8-carboxamide] yielded an IC50 of 5.39 ± 0.8 nM.
Compound `Cc1ccc2c(Nc3ccc(Cl)c(CN(C)C)c3)nccc2c1NC(=O)c1cccc2c(N)ncnc12` [Compound 64, 4-amino-N-(1-((4-chloro-3-((dimethylamino)methyl)phenyl)amino)-6-methylisoquinolin-5-yl)quinazoline-8-carboxamide] registered an IC50 of 13 ± 3.58 nM.
Under `Cc1ccc(Nc2nccc3c(NC(=O)c4cccc5c(N)ncnc45)c(C)ccc23)cc1` [Compound 65, 4-amino-N-(6-methyl-1-(p-tolylamino)isoquinolin-5-yl)quinazoline-8-carboxamide] stands 4.8 ± 0.78 nM.
As to `Cc1ccc2c(Nc3cccc(Cl)c3F)nccc2c1NC(=O)c1nccc2c(N)ncnc12` [Compound 66, 4-amino-N-(1-((3-chloro-2-fluorophenyl)amino)-6-methylisoquinolin-5-yl)pyrido[3,4-d]pyrimidine-8-carboxamide], 2.57 ± 0.32 nM corresponded to half-maximal inhibition (IC50).
As for `COc1ccc(Nc2nccc3c(NC(=O)c4cccc5c(N)ncnc45)c(C)ccc23)cc1OC` [Compound 68, 4-amino-N-(1-((3,4-dimethoxyphenyl)amino)-6-methylisoquinolin-5-yl)quinazoline-8-carboxamide], the figure is 15 ± 2.65 nM.
On to `Cc1ccc2c(Nc3cccc(Cl)c3F)nccc2c1NC(=O)c1cncc2c(N)ncnc12` [Compound 69, 4-amino-N-(1-((3-chloro-2-fluorophenyl)amino)-6-methylisoquinolin-5-yl)pyrido[4,3-d]pyrimidine-8-carboxamide], for which 4.3 ± 1.14 nM corresponded to half-maximal inhibition (IC50).
Under `Cc1ccc2c(Nc3ccc(Cl)c(F)c3F)nccc2c1NC(=O)c1cnc2c(N)ncnn12` [Compound 70, 4-amino-N-(1-((4-chloro-2,3-difluorophenyl)amino)-6-methylisoquinolin-5-yl)imidazo[2,1-f][1,2,4]triazine-7-carboxamide] stands 10.5 ± 1.72 nM; under `Cc1ccc2c(Nc3ccnc(C(F)(F)F)c3)nccc2c1NC(=O)c1cccc2c(N)ncnc12` [Compound 71, 4-amino-N-(6-methyl-1-((2-(trifluoromethyl)pyridin-4-yl)amino)isoquinolin-5-yl)quinazoline-8-carboxamide], 23 ± 1.76 nM.
As for `Cc1ccc2c(Nc3cc(F)ccc3F)nccc2c1NC(=O)c1cccc2c(N)ncnc12` [Compound 72, 4-amino-N-(1-((2,5-difluorophenyl)amino)-6-methylisoquinolin-5-yl)quinazoline-8-carboxamide], the figure is 6.9 ± 1.3 nM; as for `CCOc1ccc(Nc2nccc3c(NC(=O)c4cccc5c(N)ncnc45)c(C)ccc23)c(F)c1` [Compound 74, 4-amino-N-(1-((4-ethoxy-2-fluorophenyl)amino)-6-methylisoquinolin-5-yl)quinazoline-8-carboxamide], 13.8 ± 0.9 nM; as for `COc1ccc(Nc2nccc3c(NC(=O)c4cccc5c(N)ncnc45)c(C)ccc23)cn1` [Compound 75, 4-amino-N-(1-((6-methoxypyridin-3-yl)amino)-6-methylisoquinolin-5-yl)quinazoline-8-carboxamide], 5.58 ± 0.77 nM.
Consider `Cc1ccc2c(Nc3cccc(Cl)c3F)nccc2c1NC(=O)c1cc(O)cc2c(N)ncnc12` [Compound 76, 4-amino-N-(1-((3-chloro-2-fluorophenyl)amino)-6-methylisoquinolin-5-yl)-6-hydroxyquinazoline-8-carboxamide], for which the half-maximal inhibitory concentration (IC50) is 29.3 ± 3.32 nM.
As for `Cc1ccc2c(Nc3ccc4c(c3)OCCO4)nccc2c1NC(=O)c1cccc2c(N)ncnc12` [Compound 77, 4-amino-N-(1-((2,3-dihydrobenzo[b][1,4]dioxin-6-yl)amino)-6-methylisoquinolin-5-yl)quinazoline-8-carboxamide], the figure is 7.9 ± 0.73 nM; as for `Cc1ccc2c(Nc3ccc(C#N)cc3F)nccc2c1NC(=O)c1cccc2c(N)ncnc12` [Compound 78, 4-amino-N-(1-((4-cyano-2-fluorophenyl)amino)-6-methylisoquinolin-5-yl)quinazoline-8-carboxamide], 12.4 ± 0.94 nM; as for `Cc1ccc2c(Nc3cccc(Cl)c3F)nccc2c1NC(=O)c1cc(OCCN2CCOCC2)cc2c(N)ncnc12` [Compound 79, 4-amino-N-(1-((3-chloro-2-fluorophenyl)amino)-6-methylisoquinolin-5-yl)-6-(2-morpholinoethoxy)quinazoline-8-carboxamide], 14.7 ± 1.66 nM.
As for `Cc1ccc2c(Nc3cc(C#N)ccc3F)nccc2c1NC(=O)c1cccc2c(N)ncnc12` [Compound 80, 4-amino-N-(1-((5-cyano-2-fluorophenyl)amino)-6-methylisoquinolin-5-yl)quinazoline-8-carboxamide], the figure is 13.5 ± 12.1 nM; as for `Cc1ccc2c(Nc3cccc(Cl)c3F)nccc2c1NC(=O)c1ccnc2c(N)ncnc12` [Compound 81, 4-amino-N-(1-((3-chloro-2-fluorophenyl)amino)-6-methylisoquinolin-5-yl)pyrido[3,2-d]pyrimidine-8-carboxamide], 22 ± 3.69 nM; as for `Cc1ccc2c(Nc3ccc4c(c3)CN(C)CC4)nccc2c1NC(=O)c1cccc2c(N)ncnc12` [Compound 82, 4-amino-N-(6-methyl-1-((2-methyl-1,2,3,4-tetrahydroisoquinolin-7-yl)amino)isoquinolin-5-yl)quinazoline-8-carboxamide], 13.2 ± 1.69 nM.
For the compound `Cc1ccc2c(Nc3cccc(C#N)c3F)nccc2c1NC(=O)c1cccc2c(N)ncnc12` [Compound 83, 4-amino-N-(1-((3-cyano-2-fluorophenyl)amino)-6-methylisoquinolin-5-yl)quinazoline-8-carboxamide], half-maximal inhibition (IC50) required 15.1 ± 1.62 nM.
As for `Cc1ccc2c(Nc3cc(Cl)ccc3F)nccc2c1NC(=O)c1cc(F)cc2c(N)ncnc12` [Compound 84, 4-amino-N-(1-((5-chloro-2-fluorophenyl)amino)-6-methylisoquinolin-5-yl)-6-fluoroquinazoline-8-carboxamide], the figure is 23.8 ± 4.41 nM.
In turn, `Cc1ccc2c(Nc3cccc(Cl)c3F)nccc2c1NC(=O)c1cc(OCCO)cc2c(N)ncnc12` [Compound 86, 4-amino-N-(1-((3-chloro-2-fluorophenyl)amino)-6-methylisoquinolin-5-yl)-6-(2-hydroxyethoxy)quinazoline-8-carboxamide] gave an IC50 of 11.9 ± 1.3 nM.
`COc1ccc(F)c(Nc2nccc3c(NC(=O)c4cccc5c(N)ncnc45)c(C)ccc23)c1` [Compound 87, 4-amino-N-(1-((2-fluoro-5-methoxyphenyl)amino)-6-methylisoquinolin-5-yl)quinazoline-8-carboxamide] returned an IC50 of 4.64 ± 0.7 nM. This IC50 is about 2.6-fold lower than that of the compound before.
`Cc1ccc(Nc2nccc3c(NC(=O)c4cccc5c(N)ncnc45)c(C)ccc23)c(F)c1` [Compound 88, 4-amino-N-(1-((2-fluoro-4-methylphenyl)amino)-6-methylisoquinolin-5-yl)quinazoline-8-carboxamide] yielded an IC50 of 11.7 ± 0.99 nM. Against the preceding compound, the IC50 is about 2.5-fold higher.
Under `Cc1ccc2c(Nc3cc(Br)ccc3F)nccc2c1NC(=O)c1cccc2c(N)ncnc12` [Compound 91, 4-amino-N-(1-((5-bromo-2-fluorophenyl)amino)-6-methylisoquinolin-5-yl)quinazoline-8-carboxamide] stands 20.9 ± 2.81 nM.
The compound `Cc1ccc2c(Nc3c(F)c(F)cc(F)c3F)nccc2c1NC(=O)c1cccc2c(N)ncnc12` [Compound 95, 4-amino-N-(6-methyl-1-((2,3,5,6-tetrafluorophenyl)amino)isoquinolin-5-yl)quinazoline-8-carboxamide] came in with a concentration for half-maximal inhibition (IC50) of 13.9 ± 1.48 nM.
As for `Cc1ccc2c(Nc3cccc(OCCN4CCOCC4)c3F)nccc2c1NC(=O)c1cccc2c(N)ncnc12` [Compound 98, 4-amino-N-(1-((2-fluoro-3-(2-morpholinoethoxy)phenyl)amino)-6-methylisoquinolin-5-yl)quinazoline-8-carboxamide], the figure is 21.9 ± 6.38 nM.
Take `Cc1ccc2c(Nc3cccc(Cl)c3F)nccc2c1NC(=O)c1cn(C)c2c(N)ncnc12` [Compound 101, 4-amino-N-(1-((3-chloro-2-fluorophenyl)amino)-6-methylisoquinolin-5-yl)-5-methyl-5H-pyrrolo[3,2-d]pyrimidine-7-carboxamide]: the IC50 stood at 5.58 ± 0.57 nM.
In turn, `Cc1ccc2c(Nc3cccc(Cl)c3F)ncnc2c1NC(=O)c1cccc2c(N)ncnc12` [Compound 102, 4-amino-N-(4-((3-chloro-2-fluorophenyl)amino)-7-methylquinazolin-8-yl)quinazoline-8-carboxamide] showed an IC50 of 12.4 ± 3.05 nM.
